PMC8379205, “Bioinspired caries preventive strategy via customizable pellicles of saliva-derived protein/peptide constructs” (Scientific Reports, 2021)
Where two headings read alike, the source gives them in different places. Non-standard residues stand in square brackets, D forms with d. Residues, ends and D or L forms follow the SMILES beside them. No end group written: not given here. pS = N[C@@H](COP(=O)(O)O)C(=O)O

Assays:
[1] = system: Streptococcus mutans U159; assay type: cell-based
Experimental: MICs were assessed for all proteins/peptides against Streptococcus mutants (S. mutans) U159 oral bacteria to identify the lowest concentration at which no bacterial growth is observed. Planktonic bacteria were grown aerobically (10% CO2) in brain heart infusion (BHI) medium (BD BBL™ #211,059, MD, USA) overnight. […] BHI medium was used as a control. Bacteria were inoculated to a final concentration of 3.0 × 10^6 CFU/ml per well. The plates were incubated at 37 °C in a 10% CO2 atmosphere for 24 h under continuous shaking (200 rpm). Absorbance at 620 nm was measured using a microtiter plate reader (BioTek™ SynergyHT, VT, USA).

[2] = system: S. mutans U159 biofilms; assay: Crystal violet (CV) biomass assay on pellicle-coated substrates; assay type: cell-based, Streptococcus mutans; conditions: no sucrose (NS), 24 h biofilm; for Biovolume / biomass of biofilm (crystal violet): pellicle-coated with 200 μM for 2 h at 37 °C, OD 620 nm, compared to whole saliva; for Biofilm structure (brightfield, crystal violet-stained): polystyrene microtiter plates
Experimental: CV assay was performed to assess the remaining bioburden on pellicle-coated substrates with protein/peptide test groups in comparison to human whole saliva. Microtiter plates and HA discs were used as substrates to be pellicle-coated before growing biofilms. Each substrate was pellicle-coated with 50 μl of 200 μM protein/peptide candidates for 2 h at 37 °C under gentle shaking. Pooled filtered whole saliva and the vehicle were used as positive and negative controls respectively. The unbound protein/peptide/saliva were removed, the adjusted inoculum was dispensed without or with 1% sucrose supplementation and the samples were incubated as mentioned above but without agitation. Next day, the samples were rinsed and stained with 0.1% CV. After 15 min, the stain was rinsed, air dried, and photographed. All formed biofilms were structurally characterized with a bright field inverted microscope (EVOS™ xl core, MA, USA) before dissolving the satin, with 33% acetic acid, and reading at OD 620 nm.

[3] = system: S. mutans U159 biofilms; assay: 2-photon 3D renderings of biofilms grown on pellicle-coated HA discs; assay type: cell-based, Streptococcus mutans; conditions: 24 h biofilm, cariogenic conditions (1% sucrose), 2-photon 3D volume
Source text: Z-stacks were acquired with the 2-photon microscope (Ultima IV, Prairie Technology Inc., WI, USA) for 3D structural and vitality characterization of biofilms grown on protein/peptide pellicle-coated HA discs. Non-descanned high sensitivity multi-alckali photocatode photomultiplier detectors (R3896, Hamamatsu, Japan) were used to allow visualization of multiple fluorophores located deep within the specimen. The infra-red (IR) laser (MAI TAI, Spectra-Physics, USA), tuned at 870 nm, was operated in pulsed mode using a 20 × NA1.0 water-immersion objective (XLUMPlanFLN, Olympus, Japan) with a 2 mm working distance suitable for deep imaging. Images were compiled and analyzed with FIJI software (Fiji Is Just) ImageJ, version: 2.1.0/1.53c https://imagej.net/Contributors[19].

[4] = system: S. mutans U159 biofilms; assay: Live/dead vitality assay of biofilms on pellicle coatings; assay type: cell-based, Streptococcus mutans; conditions: NS and WS conditions, HA discs; order Hist3 followed by Hist5, Hist1 and RR14; 3 independent times, n = 5
Experimental: The vitality of grown biofilms was observed alongside their biomass to determine the antimicrobial efficacy of protein/peptide pellicle-coatings against the attached bacteria in the biofilm state. All the steps are the same as mentioned above till the staining step. Working fluorescent solution was prepared by adding 3 μl of SYTO® 9 stain and 3 μl of Propidium iodide stain to 1 ml of filter-sterilized water. The staining solution was added to each sample very gently so as not to disturb the biofilm. After 20 min light-protected incubation, samples were rinsed with 0.9% NaCl and imaged with fluorescent inverted microscope (EVOS™ M5000, MA, USA) using 20 × lens. All assays were conducted 3 independent times with sample size n = 5.

[5] = 2-photon immobilization of fluorescently labelled proteins/peptides on human enamel; assay type: binding; conditions: FAM-labelled
Source text: This characterization method aimed to monitor the amount of protein/peptide molecules immobilized on enamel in pellicle-mimicking conditions to infer their binding capacity. Z-stacks for pellicle-coated enamel slices were acquired to monitor the immobilization patterns and thus, the binding capacity of fluorescently-labelled proteins/peptides. Enamel samples were ground to 0.5–0.6 mm and polished with 600 silica-grit papers using a polishing machine (Buehler, IL, USA). Samples were then ultrasonicated in a water bath for 20 min, dried and pellicle-coated with fluorescently labeled proteins/peptides as mentioned above. 2-photon images were acquired as aforementioned using 40 × NA 0.8 water immersion objective (LUMPlanFl/IR, Olympus, Japan). Solutions of the tagging molecule (FAM) and the vehicle, 0.01% acetic acid, were used to pellicle-coat the positive and negative controls respectively. The amount of immobilized fluorescent protein/peptide molecules were quantified by calibrating the emitted fluorescence signals[21]^. The mean integrated density was calculated that sums all of the pixels along the acquired z-stacks, 4 images each.

[6] = planktonic S. mutans U159, BHI medium, 3.0 × 10^6 CFU/ml, twofold dilutions 0–512 μM, 37 °C, 10% CO2, 24 h, shaking 200 rpm, absorbance 620 nm

Molecule | MIC ([1]; U159, 24 h) | Biovolume / biomass of biofilm (crystal violet) [2] | Biofilm thickness [3] | Biofilm structure (brightfield, crystal violet-stained) [2] | Dead cells / antimicrobial efficacy in biofilm (Syto-9/propidium iodide) [4] | MIC [1, 6] | Immobilization capacity on enamel [5]
CC(C)C[C@H](NC(=O)[C@H](Cc1ccccc1)NC(=O)[C@H](CCCCN)NC(=O)[C@H](CCC(=O)O)NC(=O)[C@H](CCC(=O)O)NC(=O)[C@H](CO)NC(=O)[C@H](CO)NC(=O)[C@@H](N)CC(=O)O)C(=O)N[C@@H](CCCNC(=N)N)C(=O)O [DR9/2] (H-DSSEEKFLR-OH) | > 512 µM | – | – | – | – | – | –
CC(C)C[C@H](NC(=O)[C@H](Cc1ccccc1)NC(=O)[C@H](CCCCN)NC(=O)[C@H](CCC(=O)O)NC(=O)[C@H](CCC(=O)O)NC(=O)[C@H](COP(=O)(O)O)NC(=O)[C@H](COP(=O)(O)O)NC(=O)[C@@H](N)CC(=O)O)C(=O)N[C@@H](CCCNC(=N)N)C(=O)O [DR9] (H-D[pS][pS]EEKFLR-OH; N-terminus and C-terminus assumed) | > 512 µM | considerably reduced biomass build-up | 60–65 μm | – | – | – | –
CC(C)C[C@H](NC(=O)[C@H](Cc1ccc(O)cc1)NC(=O)[C@H](CC(N)=O)NC(=O)[C@H](CO)NC(=O)[C@H](CCCNC(=N)N)NC(=O)[C@H](Cc1ccc(O)cc1)NC(=O)CNC(=O)[C@H](CCCNC(=N)N)NC(=O)[C@H](Cc1c[nH]cn1)NC(=O)[C@H](CO)NC(=O)[C@H](Cc1c[nH]cn1)NC(=O)[C@H](Cc1c[nH]cn1)NC(=O)[C@H](CCCCN)NC(=O)[C@H](CCC(=O)O)NC(=O)[C@H](Cc1c[nH]cn1)NC(=O)[C@H](Cc1ccccc1)NC(=O)[C@H](CCCCN)NC(=O)[C@H](CCCNC(=N)N)NC(=O)[C@H](CCCCN)NC(=O)[C@H](Cc1ccc(O)cc1)NC(=O)CNC(=O)[C@H](Cc1c[nH]cn1)NC(=O)[C@H](Cc1c[nH]cn1)NC(=O)[C@H](CCCNC(=N)N)NC(=O)[C@H](CCCCN)NC(=O)[C@H](C)NC(=O)[C@H](Cc1c[nH]cn1)NC(=O)[C@H](CO)NC(=O)[C@@H](N)CC(=O)O)C(=O)N[C@@H](Cc1ccc(O)cc1)C(=O)N[C@@H](CC(=O)O)C(=O)N[C@@H](CC(N)=O)C(=O)O [Histatin3] | – | considerably reduced biomass build-up | – | more dispersed biofilms | Many dead cells | 128 µM | –
N=C(N)NCCC[C@H](NC(=O)[C@H](Cc1ccc(O)cc1)NC(=O)CNC(=O)[C@H](CCCNC(=N)N)NC(=O)[C@H](Cc1c[nH]cn1)NC(=O)[C@H](CO)NC(=O)[C@H](Cc1c[nH]cn1)NC(=O)[C@H](Cc1c[nH]cn1)NC(=O)[C@H](CCCCN)NC(=O)[C@H](CCC(=O)O)NC(=O)[C@H](Cc1c[nH]cn1)NC(=O)[C@H](Cc1ccccc1)NC(=O)[C@H](CCCCN)NC(=O)[C@@H](N)CCCNC(=N)N)C(=O)O [RR14] (H-RKFHEKHHSHRGYR-OH) | 384 µM | – | – | – | – | – | –
DSpSpEEKFLRDSpSpEEKFLR [DR9-DR9, duplicated DR9 construct, domains linked synthetically] | – | highest biovolume | – | clumps and aggregates | – | > 512 µM | –
D[pS][pS]EEKFLRRIGRFGYGYGPYQPVPEQPLYPQPYQPQYQQYTF [Statherin] | > 512 µM | highest biovolume | – | clumps and aggregates | – | – | highest immobilization capacity
Histatin1: native salivary protein, synthesized (DSHEKRHHGYRRKFHEKHHSHREFPFYGDYGSNYLYDN; ends and bridges not checked; UniProt P15515 20-57, looked up) | – | highest biovolume | – | – | Many dead cells | > 512 µM | –
